Test results reported in publication PMC4809288, “Formation of β-glucogallin, the precursor of ellagic acid in strawberry and raspberry” (Journal of Experimental Botany, 2016).

Each molecule was assayed against T1, FaGT2* (Fragaria x ananassa, UniProt Q66PF4) (assay: radiochemical UDP-[…]glucose transfer assay, butanol extraction, LSC; Hanes-Woolf and non-linear fit). Conditions: 100 mM Tris-HCl pH 7.0, 30 °C, 30 min, fixed UDP-glucose (10 010 pmol); GST fusion.
T1 construct: gene GT2; full-length ORF, N-terminal GST tag kept (pGEX-4T-1), E. coli BL21(DE3) pLysS; natural allele of FaGT2 with eight amino acid differences, of which R230, E420, I422 (FaGT2: S230, D420, V422) are given
Format: biochemical

T1 sequence (Q66PF4 whole entry, the tested form may be a part): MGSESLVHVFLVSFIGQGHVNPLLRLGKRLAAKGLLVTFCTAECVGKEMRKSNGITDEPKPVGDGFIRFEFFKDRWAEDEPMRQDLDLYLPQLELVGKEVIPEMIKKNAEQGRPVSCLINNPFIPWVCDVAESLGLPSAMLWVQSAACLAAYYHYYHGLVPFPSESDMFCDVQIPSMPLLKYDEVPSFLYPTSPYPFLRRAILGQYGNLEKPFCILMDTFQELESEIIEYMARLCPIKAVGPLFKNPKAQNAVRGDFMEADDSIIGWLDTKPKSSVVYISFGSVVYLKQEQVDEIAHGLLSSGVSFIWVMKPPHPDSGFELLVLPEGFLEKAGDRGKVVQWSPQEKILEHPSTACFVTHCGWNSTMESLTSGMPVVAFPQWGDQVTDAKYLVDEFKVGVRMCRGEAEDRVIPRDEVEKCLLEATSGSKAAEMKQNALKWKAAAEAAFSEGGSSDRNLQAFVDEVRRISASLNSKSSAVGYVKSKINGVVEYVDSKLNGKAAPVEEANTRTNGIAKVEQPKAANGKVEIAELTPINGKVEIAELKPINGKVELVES

| Compound | Km [µM] |
| --- | --- |
| O=C(O)c1ccc(O)cc1 [4-Hydroxybenzoic acid] | 315 ± 8.4 |
| COc1cc(/C=C/C(=O)O)cc(OC)c1O [Sinapic acid] | 35 ± 3 |
| COc1cc(C(=O)O)cc(OC)c1O [Syringic acid] | 262 ± 7 |
| COc1cc(C(=O)O)ccc1O [Vanillic acid] | 364 ± 12.8 |
